Experimental findings from US10799521B2, “Use of icaritin in preparing medicament for preventing or treating hematocytopenia” (Lunan Pharmaceutical Group Corporation, priority 2013, dated 2020) are described below.

The structures appear in SMILES notation.

This test concerns tumor-bearing mice (mice ascites tumor s180 cells). Briefly: Effect on chemotherapy-induced bone marrow suppression in tumor-bearing mice (routine blood test). The format is in vivo, Kunming mice. As to conditions: after 10 days once daily, docetaxel 75 mg/m^2/d iv, Tegafur/Gimeracil/Oteracil capsules 222.2 mg/m^2/d intragastric, icaritin 10 mg/kg/d iv. On the procedure:
Mice ascites tumor s180 cells were conventionally incubated in 1640 culture medium, at 37° C., 5% CO2, and passaged once every two days in average. The cells in the logarithmic growth phase were prepared into a single-cell suspension having a density of 3.0×10^7 cells/ml with normal saline, which was injected into the abdominal cavities of mice under sterile conditions. Seven days after inoculation, significant swelling of the abdominal cavities of mice can be seen. As this time, the mice were executed by cervical vertebra luxation, put into a beaker containing 75% ethanol and soaked for 2-3 minutes. The sterilized mice were placed into an ultraclean bench, and the abdomens were exposed. The ascites was drawn with a sterile syringe and put into a sterile reagent bottle for further use. The above ascites was counted with trypan blue, diluted with normal saline to adjust to 2.0×10^7 cells/ml, and inoculated at the right armpit of the mice with 0.2 ml for each mouse. The inoculated mice were randomly divided into 6 groups, with 10 animals in each group and half male and half female. Group 1, the model control group: the test animals were intraperitoneally injected with0.9% normal saline (same for the following experiments); Group 2, the docetaxel group: 75 mg/m^2/d of docetaxel; Group 3, the Tegafur, Gimeracil and Oteracil Potassium Capsules group: 222.2 mg/m^2/d of Tegafur, Gimeracil and Oteracil Potassium Capsules; Group 4, the icaritin group: 10 mg/kg/d of the icaritin microemulsion formulation; Group 5, the D+I group (docetaxel+icaritin group): 75 mg/m^2/d of docetaxel+[…] of icaritin; Group 6, the T +I group (Tegafur, Gimeracil and Oteracil Potassium Capsules+icaritin group): 222.2 mg/m^2/d of Tegafur, Gimeracil and Oteracil Potassium Capsules+10 mg/kg/d of icaritin. Docetaxel and icaritin were administered by tail intravenous injection with an administration volume of 10 ml/kg for each. Tegafur, Gimeracil and Oteracil Potassium Capsules was intragastrically administered with an administration volume of 40 ml/kg. Each group was administered once a day for totally 10 days. During the test, the animals were observed every day for their food and water uptake, survival conditions and behaviors, and measured for their body weights every day. After the test was ended, the mice were anaesthetized and anatomized. Blood was collected from abdominal aorta for routine blood test, and the total number of white blood cells, the total number of platelets and the total number of neutrophils were determined.

`COc1ccc(-c2oc3c(CC=C(C)C)c(O)cc(O)c3c(=O)c2O)cc1` [Icaritin]: the Neutrophils is reported as 1.316 ± 0.15^#**^$$ 10^9/L, the Platelets is 687.4 ± 37.2^## 10^9/L and the White blood cells is 3.530 ± 0.31^##**^$$ 10^9/L.
